In paper PMC3689833, “Neurochemical Changes in the Mouse Hippocampus Underlying the Antidepressant Effect of Genetic Deletion of P2X7 Receptors” (PLoS ONE, 2013):

Experiments:
β-adrenergic receptors = experiment: 3H-Dihydroalprenolol binding in hippocampal membranes; design: species or system mouse
Protocol: Male mice (80–85 days old) were decapitated, and the hippocampus was dissected, weighted, and frozen overnight at −70°C. The next day, the tissue from four animals was pooled, homogenized in incubation buffer using an Ultra-Turrax and centrifuged at 40 000×g for 15 minutes. The pellet was washed by repeated resuspension in buffer, followed by centrifugation. […] Eight ligand concentrations (0.1–4 nM) were used in three parallels. […] The membranes of P2rx7+/+ and P2rx7−/− mice were assayed in parallel. The binding was terminated using vacuum filtration on GF/B filters soaked in 0.05% polyethylenimine. The Kd and the number of binding sites (Bmax) were calculated using Prism3 software. The protein concentration (approx. 0.5 mg/ml) was measured according to Lowry method [50] using CuEDTA.

NA transporter = target: T1, NA transporter (Mus musculus, UniProt O55192); experiment: 3H-Nisoxetine binding in hippocampal membranes
T1 construct: the tissue from four animals was pooled, homogenized in incubation buffer; from tissue; host or cells: mouse hippocampus membranes (P2rx7+/+ and P2rx7-/- littermates, C57BL/6 background)
Protocol: Male mice (80–85 days old) were decapitated, and the hippocampus was dissected, weighted, and frozen overnight at −70°C. The next day, the tissue from four animals was pooled, homogenized in incubation buffer using an Ultra-Turrax and centrifuged at 40 000×g for 15 minutes. The pellet was washed by repeated resuspension in buffer, followed by centrifugation. […] Eight ligand concentrations (0.1–4 nM) were used in three parallels. The incubation time was 1 hour at 25°C for citalopram, 2.5 hrs at 4°C for nisoxetine and 30 minutes at 25°C for dihydroalprenolol. The non-specific binding was determined in the presence of 1 µM paroxetine (citalopram), 10 µM desmethylimipramine (nisoxetine) and 1 µM (-) alprenolol (DHA). The membranes of P2rx7+/+ and P2rx7−/− mice were assayed in parallel. The binding was terminated using vacuum filtration on GF/B filters soaked in 0.05% polyethylenimine. The Kd and the number of binding sites (Bmax) were calculated using Prism3 software. The protein concentration (approx. 0.5 mg/ml) was measured according to Lowry method using CuEDTA.

[1] = hippocampal membranes of P2rx7+/+ mice
[2] = hippocampal membranes of P2rx7−/− mice

T1 sequence (O55192 whole entry): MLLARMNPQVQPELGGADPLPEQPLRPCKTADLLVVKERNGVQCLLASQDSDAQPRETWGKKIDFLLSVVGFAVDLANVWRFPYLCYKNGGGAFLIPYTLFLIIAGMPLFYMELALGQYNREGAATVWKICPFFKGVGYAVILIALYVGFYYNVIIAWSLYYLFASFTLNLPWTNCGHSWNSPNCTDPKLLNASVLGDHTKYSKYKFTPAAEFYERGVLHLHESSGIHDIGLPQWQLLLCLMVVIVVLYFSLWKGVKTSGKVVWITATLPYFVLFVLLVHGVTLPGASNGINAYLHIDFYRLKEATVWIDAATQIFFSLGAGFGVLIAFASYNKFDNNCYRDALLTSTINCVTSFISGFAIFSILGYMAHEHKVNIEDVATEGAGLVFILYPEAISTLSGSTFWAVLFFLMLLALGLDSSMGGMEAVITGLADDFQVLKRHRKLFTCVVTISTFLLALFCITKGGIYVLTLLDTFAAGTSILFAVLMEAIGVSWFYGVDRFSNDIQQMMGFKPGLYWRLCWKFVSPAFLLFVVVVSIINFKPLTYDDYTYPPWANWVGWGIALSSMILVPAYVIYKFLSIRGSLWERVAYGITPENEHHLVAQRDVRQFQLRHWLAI

SMILES	Kd (β-adrenergic receptors; [1])	Kd (β-adrenergic receptors; [2])	Kd (NA transporter)	Bmax (NA transporter; [1])	Bmax (NA transporter; [2])
CCCc1ccccc1OCC(O)CNC(C)C (centres unmarked) [^3H-dihydroalprenolol]	0.5 ± 0.02 nM	0.4 ± 0.02 nM			
CNCCC(Oc1ccccc1OC)c1ccccc1 (centres unmarked) [^3H-nisoxetine]			0.7 ± 0.05 nM	126.8±4.9 fmol/mg protein	131.4±7.5 fmol/mg protein
